Test systems include NCI-H460 lung; CCRF-CEM leukemia; HCT-116 colon; IGROV1 ovarian; ACHN renal; NCI-H522 lung; NCI-H23 lung; UACC-62 melanoma; SF-268 CNS; SK-MEL-2 melanoma.
Assay in all cases: growth of human tumour cells (NCI), 48 h

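A five-concentration, 48-hour dose response in 96-well plates underlies each endpoint, interpolated linearly between surrounding concentrations. GI50 is the concentration that inhibits growth by half. TGI denotes the concentration required for complete inhibition of growth.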

For the compound `NCC1(N2CCOCC2)C2CCCC21CNc1ccccc1` (stereo not given), the TGI in the experiment with NCI-H460 lung, in the experiment on CCRF-CEM leukemia, with HCT-116 colon, with IGROV1 ovarian, with ACHN renal and in the experiment with NCI-H522 lung was above 100 µM throughout. Besides, the TGI in the experiment on NCI-H23 lung, with UACC-62 melanoma and with SF-268 CNS was above 100 µM in each case.
For `COC(=O)C1(C)CCCC2(C)c3cc(OC)ccc3C(=O)C(Br)C12` (stereo not given), the TGI is above 10 µM with NCI-H460 lung; 6.59 µM with CCRF-CEM leukemia; 7.23 µM in the experiment on HCT-116 colon; above 10 µM in the experiment on IGROV1 ovarian; 5.25 µM with NCI-H522 lung; above 10 µM in the experiment with NCI-H23 lung. Besides, the TGI in the experiment on UACC-62 melanoma, with SF-268 CNS and in the experiment with SK-MEL-2 melanoma was above 10 µM in each case.
Regarding `N=C1C(c2nc3ccccc3s2)=C(O)CN1c1cc(Cl)cc(Cl)c1`, the GI50 with NCI-H460 lung was 18.5 µM; with CCRF-CEM leukemia, above 100 µM; in the experiment with HCT-116 colon, 87.2 µM; with ACHN renal it was above 100 µM; in the experiment with NCI-H23 lung, above 100 µM; in the experiment on UACC-62 melanoma, above 100 µM. Moreover, the GI50 is 32.3 µM in the experiment on SF-268 CNS and above 100 µM in the experiment with SK-MEL-2 melanoma. The TGI with NCI-H460 lung, with CCRF-CEM leukemia, with HCT-116 colon, in the experiment with ACHN renal, with NCI-H23 lung and in the experiment with UACC-62 melanoma was above 100 µM in each case. Further, the TGI in the experiment on SF-268 CNS and in the experiment on SK-MEL-2 melanoma was above 100 µM in each case.
With `C#Cc1ccc(-n2c(/C=C/c3ccc4ccccc4c3)nc3ncccc3c2=O)cc1`, the GI50 was 2.88 µM with NCI-H460 lung; 1.53 µM in the experiment on CCRF-CEM leukemia; 2.92 µM in the experiment with IGROV1 ovarian; 2.57 µM with ACHN renal; 5.11 µM in the experiment on NCI-H522 lung; 6.39 µM with NCI-H23 lung. For the same compound, the GI50 with UACC-62 melanoma was 2.49 µM; in the experiment with SF-268 CNS, 2.6 µM; in the experiment with SK-MEL-2 melanoma, 2.41 µM. The TGI in the experiment with NCI-H460 lung, in the experiment on CCRF-CEM leukemia, with IGROV1 ovarian, in the experiment on ACHN renal, in the experiment with NCI-H522 lung and in the experiment with NCI-H23 lung was above 100 µM each time. In addition, the TGI is above 100 µM in the experiment with UACC-62 melanoma, above 100 µM with SF-268 CNS and 6.2 µM in the experiment with SK-MEL-2 melanoma.
Regarding `Fc1ccc(-c2nn3c(COc4ccc(Cl)cc4Cl)nnc3s2)cc1Oc1ccccc1`, the GI50 with NCI-H460 lung was 25.4 µM; in the experiment on CCRF-CEM leukemia it was 16.8 µM; with HCT-116 colon, 13.2 µM; with IGROV1 ovarian, 26.2 µM; in the experiment with ACHN renal, 14.1 µM; in the experiment with NCI-H522 lung, 27 µM. Besides, the GI50 in the experiment on NCI-H23 lung is 13.6 µM; in the experiment with UACC-62 melanoma, 14.3 µM; in the experiment on SF-268 CNS, 29.8 µM. Besides, the TGI was above 100 µM with NCI-H460 lung; 39 µM with CCRF-CEM leukemia; 25.9 µM in the experiment with HCT-116 colon; 92.6 µM in the experiment with IGROV1 ovarian; 27.3 µM with ACHN renal; above 100 µM in the experiment on NCI-H522 lung. The figures for the TGI in the experiment with NCI-H23 lung, in the experiment on UACC-62 melanoma and with SF-268 CNS were 26.4 µM, 28.9 µM and 87.8 µM, respectively.
On to `CC1CC(c2ccc(Cl)c(Cl)c2)=Nc2ccccc2S1` (stereo not given), for which the TGI in the experiment with NCI-H460 lung, in the experiment on CCRF-CEM leukemia, in the experiment with HCT-116 colon, in the experiment with IGROV1 ovarian, in the experiment with ACHN renal and with NCI-H522 lung was above 100 µM throughout. Also, the TGI with NCI-H23 lung, in the experiment on UACC-62 melanoma and with SF-268 CNS was above 100 µM each time.
In the case of `COC(=O)C1=C(\O)C[C@@]2(C)CC[C@@H](C(=O)OC)C2C/C=C\1C(=O)OC` (stereo not given in full), the TGI in the experiment on NCI-H460 lung, in the experiment on CCRF-CEM leukemia, with HCT-116 colon, in the experiment on IGROV1 ovarian, with ACHN renal and with NCI-H522 lung was above 100 µM each time. Moreover, the TGI with UACC-62 melanoma and in the experiment with SF-268 CNS was above 100 µM each time.
`O=C1c2ccccc2C(=O)c2c1ccc1c2N=C(c2ccc(Br)cc2)CC(c2cccc3ccccc23)N1` (stereo not given): the TGI in the experiment with NCI-H460 lung, in the experiment with CCRF-CEM leukemia, in the experiment on IGROV1 ovarian, in the experiment with ACHN renal, in the experiment on NCI-H522 lung and with NCI-H23 lung was above 100 µM in each case. Also, the TGI in the experiment on UACC-62 melanoma, in the experiment on SF-268 CNS and with SK-MEL-2 melanoma was above 100 µM throughout.
On to `Cn1cnc([N+](=O)[O-])c1Sc1nc2ccc([N+](=O)[O-])cc2[nH]1`, for which the TGI was above 100 µM in the experiment on NCI-H460 lung; 81.1 µM in the experiment with CCRF-CEM leukemia; 57.8 µM in the experiment with HCT-116 colon; 58.6 µM with IGROV1 ovarian; above 100 µM in the experiment with ACHN renal; 72 µM in the experiment with NCI-H23 lung. For the same compound, the results for the TGI in the experiment with UACC-62 melanoma and in the experiment with SF-268 CNS were 28.2 µM and 53.1 µM, respectively.
Regarding `Cc1cn2c(/C=C3/C(=O)Nc4ccc(Cl)cc43)c(C)nc2s1`, the GI50 in the experiment on NCI-H460 lung was 1.04 µM; with HCT-116 colon, below 0.0238 µM; in the experiment with IGROV1 ovarian, 2.5 µM; with ACHN renal, 0.185 µM; in the experiment with NCI-H522 lung it was 1.01 µM; in the experiment on NCI-H23 lung it was 0.0454 µM. Besides, the GI50 in the experiment on UACC-62 melanoma was 0.0411 µM; with SF-268 CNS it was 12.5 µM; with SK-MEL-2 melanoma, 21.4 µM. Besides, the TGI is above 59.4 µM with NCI-H460 lung; 25.3 µM with HCT-116 colon; 99.4 µM in the experiment with IGROV1 ovarian; 48.4 µM in the experiment on ACHN renal; above 100 µM in the experiment with NCI-H522 lung; 0.37 µM in the experiment with NCI-H23 lung. Besides, the TGI in the experiment on UACC-62 melanoma is 54.7 µM; with SF-268 CNS, above 100 µM; with SK-MEL-2 melanoma, above 100 µM.
With `Cc1cc(N)cc(C)c1-c1c(Br)cc(N)cc1Br`, the GI50 in the experiment with NCI-H460 lung was 3.31 µM; in the experiment on HCT-116 colon, 3.68 µM; in the experiment on IGROV1 ovarian it was 4.32 µM; in the experiment with ACHN renal, 10.6 µM; in the experiment with NCI-H522 lung, 2.19 µM; with NCI-H23 lung, 3.52 µM. Further, the GI50 was 3.52 µM in the experiment on UACC-62 melanoma, 6.36 µM with SF-268 CNS and 4.14 µM with SK-MEL-2 melanoma. The TGI in the experiment on NCI-H460 lung was 11.2 µM; in the experiment with HCT-116 colon it was 13.1 µM; with IGROV1 ovarian, above 100 µM; in the experiment with ACHN renal, 98.4 µM; in the experiment on NCI-H522 lung, 7.88 µM; in the experiment on NCI-H23 lung, 19 µM. Also, the TGI in the experiment on UACC-62 melanoma was 24 µM; in the experiment with SF-268 CNS it was 68.5 µM; in the experiment with SK-MEL-2 melanoma it was 21.1 µM.
